The values that follow come from patent US11306056B2 (Cardioxyl Pharmaceuticals, Inc., priority 2006, dated 2022).

The nature of series [1]: Decomposition kinetics (HNO release) monitored by UV-Vis spectroscopy. The series is classed as physicochemical. To be noted: for kO2/kAr: ratio of oxygen-dependent to argon decomposition rate, 0.1 M PBS pH 7.4, 37° C.; for half-life: pH 7.4, decomposition half-life, pH 7.4, 37° C., compounds 5, 7-10 not first-order, approximate half-lives. As for the experimental part:
The decomposition rates of the compounds may be determined by UV-Vis spectroscopy.
The decomposition of compounds 1-4 and 6 from Example 1 was monitored by UV-Vis spectroscopy in 0.1 M PBS buffer at pH 7.4 and 37° C. The spectral behavior was isosbestic and the time course fit well to a single exponential. […] Decomposition kinetics for compounds 5, 7-10 of Example 1 are not first-order and thus only approximate half-lives are reported. Compounds with more than one number in a single column in the table below indicates the results of two experiments for the same compound.

Another series concerns rat renal tissue. To be noted: rat kidney, given during ischemia and 5 minutes before reperfusion; cited from earlier work.
Series [2] concerns ischemia/reperfusion injury. To be noted: pre-ischemic administration; cited from earlier work.
Series [3] concerns myocardial ischemia/reperfusion injury. The following applies: anesthetized rabbits, given during ischemia and 5 minutes prior to reperfusion; cited from earlier work.
The mark [4] stands for this setting: aerated 0.1 M PBS buffer, aerated 0.1 M PBS buffer, read-out: t1/2 (air).
Setting [5] is: argon-saturated 0.1 M PBS buffer, argon-saturated 0.1 M PBS buffer, read-out: t1/2 (Ar).

Each structure is given as a SMILES string. Like-named read-outs stand apart in the source and are kept apart here.

Take `O=S(=O)(NO)c1cc(Cl)sc1Cl` [Compound 6, 2,5-Dichlorothiophene-3-sulfohydroxamic acid]: the kO2/kAr in series [1] is 2.52.

Consider `O=S(=O)(NO)c1ccccc1Br` [Compound 3, 2-Bromo-N-hydroxybenzenesulfonamide], for which the melting point (in general, the temperature, or range, at which the solid turns liquid) is 156 to 159 °C (dec.). In series [1] (setting [4]), the half-life was found to be 0.68 min. For the same compound, in series [1] (setting [5]), the half-life was determined as 1.05 min. Further, in series [1], the kO2/kAr stood at 0.55.

With `[Na+].[Na+].[O-][N+]([O-])=NO` [AS, sodium dioxotrinitrate], the “neutrophil infiltration into renal tissue” value in the series with rat renal tissue is “contributed to neutrophil infiltration into the tissue”. The “effect on ischemia/reperfusion injury” value in series [2] was “prevent or reduce ischemia/reperfusion injury”. In addition, the “effect on myocardial ischemia/reperfusion injury” value in series [3] is listed as “increased myocardial ischemia/reperfusion injury”.

Regarding `N#Cc1ccc(S(=O)(=O)NO)cc1` [Compound 9, 4-Cyano-N-hydroxybenzenesulfonamide], the melting point is 151 to 155 °C (dec.). The half-life in series [1] (setting [4]) was 4 min. Also, in series [1] (setting [5]), the half-life was 17.8 min.

As to `O=S(=O)(NO)c1ccc(C(F)(F)F)cc1` [Compound 8, 4-(Trifluoromethyl)-N-hydroxybenzenesulfonamide], the melting point was 117 to 121 °C (dec.). Further, the half-life in series [1] (setting [4]) stood at 7 min. Moreover, the half-life in series [1] (setting [5]) turned out to be 33 min.

Regarding `O=[N+]([O-])c1ccc(S(=O)(=O)NO)cc1` [Compound 10, 4-Nitro-N-hydroxybenzenesulfonamide], the half-life in series [1] (setting [4]) turned out to be 3.3 min.

In the case of `CC(C)N[N+]([O-])=N[O-].[Na+]` [isopropylamine/NO], the “effect on ischemia/reperfusion injury” value in series [2] is listed as “prevent or reduce ischemia/reperfusion injury”.

Consider `O=S(=O)(NO)c1ccc(F)cc1` [Compound 7, 4-Fluoro-N-hydroxybenzenesulfonamide], for which the half-life in series [1] (setting [4]) stood at 10 min; in series [1] (setting [5]), 72.1 min.

In the case of `O=S(=O)(NO)c1ccccc1F` [Compound 1, 2-Fluoro-N-hydroxybenzenesulfonamide], the melting point lay in the range of 127 to 129 °C. Besides, in series [1] (setting [4]), the half-life turned out to be 2.67 min. Further, the half-life in series [1] (setting [5]) stood at 17.5 min. The kO2/kAr in series [1] came to 5.82.

With `O=S(=O)(NO)c1ccccc1C(F)(F)F` [Compound 4, 2-(Trifluoromethyl)-N-hydroxybenzenesulfonamide], the melting point was 124 to 127 °C (dec.). Also, in series [1] (setting [4]), the half-life is 0.55 min. For the same compound, the half-life in series [1] (setting [5]) is 0.96 min. The kO2/kAr in series [1] is on record as 0.75.

In the case of `O=S(=O)(NO)c1ccccc1Cl` [Compound 2, 2-Chloro-N-hydroxybenzenesulfonamide], the melting point was 152 to 155 °C (dec.). Moreover, in series [1] (setting [4]), the half-life was 1.75 min. Besides, the half-life in series [1] (setting [5]) was found to be 3.61 min. Further, the kO2/kAr in series [1] turned out to be 1.06.
